Patent US8293909B2, “Compounds for the treatment of hepatitis C” (Bristol-Myers Squibb Company, priority 2008, dated 2012)

Columns and labels:
[1] = system: HCV replicon cells; assay: HCV replicon assay (FRET or luciferase readout); format: cell-based; conditions: Table 1
Source text: FRET Assay Preparation. To perform the HCV FRET screening assay, 96-well cell culture plates were used. The FRET peptide (Anaspec, Inc.) (Taliani et al., Anal. Biochem. 1996, 240, 60-67) contains a fluorescence donor, EDANS, near one end of the peptide and an acceptor, DABCYL, near the other end. The fluorescence of the peptide is quenched by […] resonance energy transfer (RET) between the donor and the acceptor, but as the NS3 protease cleaves the peptide the products are released from RET quenching and the fluorescence of the donor becomes apparent. The assay reagent was made as follows: 5× cell Luciferase cell culture lysis reagent from Promega (#E153A) diluted to 1× with dH2O, NaCl added to 150 mM final, the FRET peptide diluted to 20 μM final from a 2 mM stock.
To prepare plates, HCV replicon cells, with or without a Renilla luciferase reporter gene, were trypsinized and placed into each well of a 96-well plate with titrated test compounds added in columns 3 through 12; columns 1 and 2 contained a control compound (HCV protease inhibitor), and the bottom row contained cells without compound. The plates were then placed in a CO2 incubator at 37° C.
Assays. Subsequent to addition of the test compounds described above (FRET Assay Preparation), at various times the plate was removed and Alamar blue solution (Trek Diagnostics, #00-100) was added per well as a measure of cellular toxicity. After reading in a Cytoflour 4000 instrument (PE Biosystems), plates were rinsed with PBS and then used for FRET assay by the addition of 30 ul of the FRET peptide assay reagent described above (FRET Assay Preparation) per well. The plate was then placed into the Cytoflour 4000 instrument which had been set to 340 excite/490 emission, automatic mode for 20 cycles and the plate read in a kinetic mode. Typically, the signal to noise using an endpoint analysis after the reads was at least three-fold. Alternatively, after Alamar blue reading, plates were rinsed with PBS, 50 ul of DMEM (high glucose) without phenol red was added and plates were then used for luciferase assay using the Promega Dual-Glo Luciferase Assay System.
Compound analysis was determined by quantification of the relative HCV replicon inhibition and the relative cytotoxicity values. To calculate cytoxicity values, the average Alamar Blue fluorescence signals from the control wells were set as 100% non-toxic. The individual signals in each of the compound test wells were then divided by the average control signal and multiplied by 100% to determine […]. To calculate the HCV replicon inhibition values, an average background value was obtained from the two wells containing the highest amount of HCV protease inhibitor at the end of the assay period. These numbers were similar to those obtained from naïve Huh-7 cells.
The background numbers were then subtracted from the average signal obtained from the control wells and this number was used as 100% activity. The individual signals in each of the compound test wells were then divided by the averaged control values after background subtraction and multiplied by 100% to determine percent activity. EC50 values for a protease inhibitor titration were calculated as the concentration which caused a 50% reduction in FRET or luciferase activity. The two numbers generated for the compound plate, percent cytoxicity and percent activity were used to determine compounds of interest for further analysis.

[2] = target: T1, HCV NS5B RdRp genotype 1b (Hepatitis C virus genotype 1b, UniProt Q9WMX2); assay: HCV NS5B RdRp enzyme assay (standard / modified); format: biochemical; conditions: Table 1; HCV NS5B genotype 1b
T1 construct: The protein was expressed with an 18 amino acid C-terminal truncation to enhance the solubility; made in house; host or cells: E. coli BL21(DE3), pET21a vector
T1 sequence (Q9WMX2 2420-2992): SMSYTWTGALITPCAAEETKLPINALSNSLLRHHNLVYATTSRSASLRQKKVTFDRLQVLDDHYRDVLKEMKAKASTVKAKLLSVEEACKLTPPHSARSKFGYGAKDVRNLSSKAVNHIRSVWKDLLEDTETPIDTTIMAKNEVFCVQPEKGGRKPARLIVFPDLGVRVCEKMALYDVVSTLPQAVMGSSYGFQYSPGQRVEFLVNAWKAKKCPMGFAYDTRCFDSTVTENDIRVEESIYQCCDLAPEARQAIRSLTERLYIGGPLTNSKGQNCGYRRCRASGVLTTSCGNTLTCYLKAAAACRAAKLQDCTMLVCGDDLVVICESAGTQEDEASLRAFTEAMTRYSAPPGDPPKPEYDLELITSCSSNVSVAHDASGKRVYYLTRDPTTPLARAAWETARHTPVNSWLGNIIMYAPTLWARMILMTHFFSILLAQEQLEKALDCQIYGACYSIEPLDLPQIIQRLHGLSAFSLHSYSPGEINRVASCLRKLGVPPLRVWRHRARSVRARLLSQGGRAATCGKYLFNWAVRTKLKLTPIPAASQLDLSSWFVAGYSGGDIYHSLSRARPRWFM
Description: HCV NS5B RdRp cloning, expression, and purification. The cDNA encoding the NS5B protein of HCV, genotype 1b, was cloned into the pET21a expression vector. The protein was expressed with an 18 amino acid C-terminal truncation to enhance the solubility. The E. coli competent cell line BL21(DE3) was used for expression of the protein. Cultures were grown at 37° C. for ˜4 hours until the cultures reached an optical density of 2.0 at 600 nm. The cultures were cooled to 20° C. and induced with 1 mM IPTG. Fresh ampicillin was added to a final concentration of 50 μg/ml and the cells were grown overnight at 20° C.
Cell pellets (3 L) were lysed for purification to yield 15-24 mgs of purified NS5B. The lysis buffer consisted of 20 mM Tris-HCl, pH 7.4, 500 mM NaCl, 0.5% triton X-100, 1 mM DTT, 1 mM EDTA, 20% glycerol, 0.5 mg/ml lysozyme, 10 mM MgCl2, 15 ug/ml deoxyribonuclease I, and Complete™ protease inhibitor tablets (Roche). After addition of the lysis buffer, frozen cell pellets were resuspended using a tissue homogenizer. To reduce the viscosity of the sample, aliquots of the lysate were sonicated on ice using a microtip attached to a Branson sonicator. The sonicated lysate was centrifuged at 100,000×g for 1 hr at 4° C. and filtered through a 0.2 μm filter unit (Corning).
The protein was purified using three sequential chromatography steps: Heparin sepharose CL-6B, polyU sepharose 4B, and Hitrap SP sepharose (Pharmacia). The chromatography buffers were identical to the lysis buffer but contained no lysozyme, deoxyribonuclease I, MgCl2 or protease inhibitor and the NaCl concentration of the buffer was adjusted according to the requirements for charging the protein onto the column. Each column was eluted with a NaCl gradient which varied in length from 5-50 column volumes depending on the column type. After the final chromatography step, the resulting purity of the enzyme is >90% based on SDS-PAGE analysis. The enzyme was aliquoted and stored at −80° C.
Standard HCV NS5B RdRp enzyme assay. HCV RdRp genotype 1b assays were run in a final volume of 60 μl in 96 well plates (Costar 3912). The assay buffer is composed of 20 mM Hepes, pH 7.5, 2.5 mM KCl, 2.5 mM MgCl2, 1 mM DTT, 1.6 U RNAse inhibitor (Promega N2515), 0.1 mg/ml BSA (Promega R3961), and 2% glycerol. All compounds were serially diluted (3-fold) in DMSO and diluted further in water such that the final concentration of DMSO in the assay was 2%. HCV RdRp genotype 1b enzyme was used at a final concentration of 28 nM. A polyA template was used at 6 nM, and a biotinylated oligo-dT12 primer was used at 180 nM final concentration. Template was obtained commercially (Amersham 27-4110). Biotinylated primer was prepared by Sigma Genosys. 3H-UTP was used at 0.6 μCi (0.29 μM total UTP). Reactions were initiated by the addition of enzyme, incubated at 30° C. for 60 min, and stopped by adding 25 μl of 50 mM EDTA containing SPA beads (4 μg/μl, Amersham RPNQ 0007). Plates were read on a Packard Top Count NXT after >1 hr incubation at room temperature.
Modified HCV NS5B RdRp enzyme assay. A modified enzyme assay was performed essentially as described for the standard enzyme assay except for the following: The biotinylated oligo dT12 primer was precaptured on streptavidin-coated SPA beads by mixing primer and beads in assay buffer and incubating at room temperature for one hour. Unbound primer was removed after centrifugation. The primer-bound beads were resuspended in 20 mM Hepes buffer, pH 7.5 and used in the assay at final concentrations of 20 nM primer and 0.67 μg/μl beads. Order of addition in the assay: enzyme (14 nM) was added to diluted compound followed by the addition of a mixture of template (0.2 nM), 3H-UTP (0.6 μCi, 0.29 μM), and primer-bound beads, to initiate the reaction; concentrations given are final. Reactions were allowed to proceed for 4 hours at 30° C.
IC50 values for compounds were determined using seven different [I]. […]

SMILES | EC50 ([1]; Hepatitis C virus) [nM] | IC50 [2] [nM] | EC50 [1] [nM]
CNC(=O)c1c(-c2ccc(F)cc2)oc2ncc(-c3cc(C(=O)NC4(c5ccccn5)CC4)ccc3C)cc12 [drawing 116] | 2 to 250 | 2 to 250 | –
CNC(=O)c1c2cc(-c3cccc(C(=O)NC4(c5ccccn5)CC4)c3)ccc2nn1-c1ccc(F)cc1 | 1000 to 10000 | 1000 to 10000 | –
CNC(=O)c1c(-c2ccc(F)cc2)sc2ccc(-c3cccc(C(=O)NC(C)(C)C)c3)cc12 [drawing 85] | 1000 to 10000 | > 4170 | –
CNC(=O)c1c(-c2ccc(F)cc2)nc2ccc(-c3ccc(-c4ccccc4Cl)c(C(=O)NCC(C)C)c3)cn12 [drawing 121] | 2 to 250 | – | –
CCN(c1cn2nc(-c3ccc(F)cc3)c(C(=O)NC)c2cc1C1CCCC1)S(C)(=O)=O | 1000 to 10000 | 250 to 1000 | –
COC(=O)c1c(-c2ccccc2)nn2ccc(-c3cccc(C(=O)NC(C)(C)c4ccccc4)c3)cc12 | > 10000 | > 10000 | –
CNC(=O)c1c(-c2ccc(F)cc2)nn2cc(N(CCO)S(C)(=O)=O)ccc12 | > 10000 | > 10000 | –
CNC(=O)c1c(-c2ccc(F)cc2)oc2cnc(-c3cccc(C(=O)NC4(c5ccccn5)CC4)c3)cc12 | 1000 to 10000 | 2 to 250 | –
CNC(=O)c1c(-c2ccc(F)cc2)nn2ccc(-c3cc(F)cc(C(=O)NC4(c5ccccc5)CC4)c3)c(F)c12 | > 10000 | – | –
CNC(=O)c1c(-c2ccc(F)cc2)nn2cc(NC(=O)C(F)(F)F)ccc12 | > 10000 | > 10000 | –
CNC(=O)c1c(-c2ccc(F)cc2)nn2ccc(NS(=O)(=O)c3cccc(OC)c3)cc12 | > 10000 | > 10000 | –
CNC(=O)c1c2cc(-c3cccc(C(=O)NC(C)(C)C)c3)ccc2nn1-c1ccc(F)cc1 | 1000 to 10000 | 1000 to 10000 | –
CC(C)(NC(=O)c1cccc(-c2ccn3nc(-c4ccccc4)c(C(=O)O)c3c2)c1)c1ccccc1 | > 10000 | > 10000 | –
CNC(=O)c1c(-c2ccc(F)cc2)oc2ncc(-c3cccc(C(=O)NC4(c5ccccc5)CC4)c3)cc12 | 2 to 250 | 2 to 250 | –
CCN(c1cn2nc(-c3ccc(F)cc3)c(C(=O)NC)c2cc1C1CC1)S(C)(=O)=O | 2 to 250 | 2 to 250 | –
CNC(=O)c1c(-c2ccc(F)cc2)sc2ccc(-c3cccc(C(=O)NC4(c5ccccc5)CC4)c3)cc12 | 1000 to 10000 | 250 to 1000 | –
CCN(c1cn2nc(-c3ccc(F)cc3)c(C(=O)NC)c2cc1-c1cccc(C(=O)NC(C)(C)c2ccccc2)c1)S(C)(=O)=O [drawing 92] | 2 to 250 | 2 to 250 | –
CNC(=O)c1c(-c2ccc(F)cc2)nn2ccc(OC)cc12 | > 10000 | > 10000 | –

SMILES | EC50 ([1]; Hepatitis C virus) [nM] | IC50 [2] [nM] | EC50 [1] [nM]
CNC(=O)c1c(-c2ccc(F)cc2)nn2ccc(-c3cc(C(=O)NC4(c5ccccc5)CC4)c(OC)nc3C)c(F)c12 | 2 to 250 | – | –
CNC(=O)c1c(-c2ccc(F)cc2)nn2ccc(-c3cc(C(=O)NC4(c5ccccn5)CC4)c(OC)nc3C)c(F)c12 | 2 to 250 | – | –
CNC(=O)c1c(-c2ccc(F)cc2)nn2ccc(-c3cc(C(=O)NC4(c5nnc(-c6ccccc6)[nH]5)CC4)c(OC)cc3C)c(F)c12 | 2 to 250 | – | –
CNC(=O)c1c(-c2ccc(F)cc2)nn2ccc(-c3cc(C(=O)NC4(c5ccccc5)CC4)cc(F)c3C)c(F)c12 [drawing 138] | 2 to 250 | – | –
CNC(=O)c1c(-c2ccc(F)cc2)nn2ccc(-c3cc(C(=O)NC4(c5ccccn5)CC4)c(OC(F)F)nc3C)c(F)c12 | 2 to 250 | – | –
CNC(=O)c1c(-c2ccc(F)cc2)nn2cc(N(CCO)S(C)(=O)=O)c(-c3cc(C(=O)NC4(c5ccccc5)CC4)ccc3C)cc12 | – | 2 to 250 | –
CNC(=O)c1c(-c2ccc(F)cc2)nn2ccc(-c3cc(F)cc(C(=O)NC4(c5ccccn5)CC4)c3)c(F)c12 | 1000 to 10000 | – | –
CNC(=O)c1c(-c2ccc(F)cc2)nn2ccc(-c3cc(C(=O)NC4(c5cnccn5)CC4)c(OC)cc3C)c(F)c12 | 2 to 250 | – | –
CNC(=O)c1c(-c2ccc(F)cc2)nn2ccc(-c3cc(C(=O)NC4(c5ccccc5)CC4)c(OC(F)F)nc3C)c(F)c12 | 2 to 250 | – | –
CNC(=O)c1c(-c2ccc(F)cc2)nn2ccc(-c3cc(C(=O)NC4(c5nc(C)no5)CC4)cc(F)c3C)c(F)c12 | 2 to 250 | – | –
CNC(=O)c1c(-c2ccc(F)cc2)nn2ccc(-c3cc(C(=O)NC4(c5ccccn5)CC4)cc(F)c3C)c(F)c12 | 2 to 250 | – | –
CNC(=O)c1c(-c2ccc(F)cc2)nn2ccc(-c3cc(C(=O)NC4(c5ncccn5)CC4)c(OCC4CCOCC4)nc3C)c(F)c12 | 2 to 250 | – | –
CNC(=O)c1c(-c2ccc(F)cc2)nn2ccc(-c3cc(C(=O)NC4(c5ccccn5)CC4)c(OCC4CCOCC4)nc3C)c(F)c12 | 2 to 250 | – | –
CNC(=O)c1c(-c2ccc(F)cc2)nc2ccc(-c3ccc(-c4cccnc4)c(C(=O)NCC(C)C)c3)cn12 | 250 to 1000 | – | –
CNC(=O)c1c(-c2ccc(F)cc2)nc2ccc(-c3cc(C(=O)NC4(c5ccccn5)CC4)c(OC)cc3Cl)cn12 [drawing 124] | 250 to 1000 | – | –
CNC(=O)c1c(-c2ccc(F)cc2)nc2ccc(C3CC3C(=O)NC3(c4ccccn4)CC3)cn12 (stereo not drawn) [drawing 160] | – | – | > 10000
CNC(=O)c1c(-c2ccc(F)cc2)nn2ccc(-c3cc(C(=O)NC4(c5cc(F)ccn5)CC4)c(OC)nc3C)c(F)c12 | 2 to 250 | – | –
